Measured values published in patent US11584726B2 (Beijing Foreland Pharma Co., Ltd., priority 2017, dated 2023).

Tests used:
[1] = tested on: CD8 on peripheral blood cell; test: Effects on the expression of CD8 on peripheral blood cell in mice (flow cytometry); assay type: in vivo, mice (C57 BL/6); conditions: intragastric, once a day for four days, mouse peripheral blood
Method: (§1) FITC Rat Anti-Mouse CD8a: BD, Cat. #553030.
(§2) PE Rat Anti-Mouse CD4: BD, Cat. #557308.
(§3) APC Rat Anti-Mouse CD19: BD, Cat. #561738.
(§4) The compounds used in the test were prepared by the chemical department of Beijing Forelandpharma Co. Ltd.
(§5) Routs of administration: intragastric administration, once a day, and continuous administration for four days.
(§6) After the administration, supraorbital venous blood was collected from the mouse, added to an EP tube (1.5 ml) containing an anticoagulant, and kept on the ice. The resulting mixture was transferred to a test tube, centrifuged at 4° C. and 1200 rpm/min for 5 min, removed with the supernatant liquid, added with a lysate, processed with cell lysis on the ice for 5 min, then pre-dyed, added with diluted antibody, and incubated away from light for 30 min. After the incubation, the resulting mixture was washed, removed with the supernatant liquid, added with stationary liquid, and kept in a refrigerator at 4° C. away from light for the test of flow cytometry.

[2] = tested on: CD19 on peripheral blood cell; test: Effects on the expression of CD19 on peripheral blood cell in mice (flow cytometry); assay type: in vivo, mice (C57 BL/6); conditions: intragastric, once a day for four days, mouse peripheral blood
Method: as §1, §2, §3, §4, §5, §6

[3] = tested on: CD4 on peripheral blood cell; test: Effects on the expression of CD4 on peripheral blood cell in mice (flow cytometry); assay type: in vivo, mice (C57 BL/6); conditions: intragastric, once a day for four days, mouse peripheral blood
Method: as §1, §2, §3, §4, §5, §6

[4] = target: S1P5 (Homo sapiens (Human), UniProt Q9H228); test: Fluorescence detection FLIPR assay, activation of GPCR (S1P5); assay type: cell-based; conditions: total detection time 180 s, read-out: FLIPR Test EC50 S1P5
Sequence of S1P5 (Q9H228 whole entry, species assumed): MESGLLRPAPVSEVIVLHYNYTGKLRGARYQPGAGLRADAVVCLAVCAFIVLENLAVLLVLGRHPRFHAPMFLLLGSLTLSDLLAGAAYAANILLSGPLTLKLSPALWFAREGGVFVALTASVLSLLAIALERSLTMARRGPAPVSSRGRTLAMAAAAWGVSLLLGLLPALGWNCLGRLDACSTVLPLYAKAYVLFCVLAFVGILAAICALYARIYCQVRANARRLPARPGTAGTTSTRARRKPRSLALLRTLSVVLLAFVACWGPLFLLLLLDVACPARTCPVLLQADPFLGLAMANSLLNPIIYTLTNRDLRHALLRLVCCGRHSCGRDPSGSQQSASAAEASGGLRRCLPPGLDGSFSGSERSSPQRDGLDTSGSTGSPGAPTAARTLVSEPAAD
Method: The sample to be tested was dissolved in DMSO and diluted with detection buffer solution in 3-fold dilution. A reagent and a positive control were diluted in the same way.
The reactions of the agonist, the reagent and the positive control were detected by a device of […] with a total detection time of 180 s to estimate the ability to activate GPCR (S1P5) of each compound.

[5] = target: S1P1 (Homo sapiens (Human), UniProt P21453); test: PathHunter β-arrestin test S1P1; assay type: cell-based; conditions: PathHunter β-arrestin engineering cells
Sequence of S1P1 (P21453 whole entry, species assumed): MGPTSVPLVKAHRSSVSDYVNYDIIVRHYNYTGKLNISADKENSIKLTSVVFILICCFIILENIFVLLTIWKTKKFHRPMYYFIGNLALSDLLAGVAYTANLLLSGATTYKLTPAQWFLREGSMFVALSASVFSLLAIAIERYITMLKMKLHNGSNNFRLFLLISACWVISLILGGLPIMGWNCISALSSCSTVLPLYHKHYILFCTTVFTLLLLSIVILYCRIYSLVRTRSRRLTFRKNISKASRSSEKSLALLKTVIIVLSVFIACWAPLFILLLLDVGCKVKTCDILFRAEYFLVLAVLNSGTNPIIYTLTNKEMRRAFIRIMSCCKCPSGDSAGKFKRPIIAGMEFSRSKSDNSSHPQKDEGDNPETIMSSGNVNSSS
Method: (§7) 1. PathHunter β-arrestin testing system was used to detect the biological activity of the compounds.
(§8) 2. β-arrestin engineering cells were cultured on […] culture plates and placed in an incubator at 37° C.
(§9) 3. The sample to be tested was diluted with reaction solution in 5-fold dilution.
(§10) 4. The diluted sample to be tested was added to the engineering cells and the reaction was induced and observed.
(§11) 5. The chemiluminescence signal produced in the test may be detected by multifunctional enzyme marker (PerkinElmer Envision™).
(§12) Test Analysis and Results
(§13) 6. The data obtained was analyzed using the data analysis software of CBIS (ChemInnovation, CA) to achieve EC50, and the test results are shown in Table 2.

[6] = target: S1P4 (Homo sapiens (Human), UniProt O95977); test: PathHunter β-arrestin test S1P4; assay type: cell-based; conditions: PathHunter β-arrestin engineering cells
Sequence of S1P4 (O95977 whole entry, species assumed): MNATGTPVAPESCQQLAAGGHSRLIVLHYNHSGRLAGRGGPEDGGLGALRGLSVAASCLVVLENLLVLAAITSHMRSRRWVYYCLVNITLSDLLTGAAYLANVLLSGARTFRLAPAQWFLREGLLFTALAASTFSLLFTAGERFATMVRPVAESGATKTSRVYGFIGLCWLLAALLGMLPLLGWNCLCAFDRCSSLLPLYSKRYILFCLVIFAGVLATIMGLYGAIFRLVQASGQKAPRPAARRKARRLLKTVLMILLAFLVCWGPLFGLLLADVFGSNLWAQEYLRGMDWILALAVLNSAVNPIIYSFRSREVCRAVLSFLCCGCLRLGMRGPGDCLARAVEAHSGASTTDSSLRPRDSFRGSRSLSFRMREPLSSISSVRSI
Method: as §7, §8, §9, §10, §11, §12, §13

[7] = target: hERG potassium channel (Homo sapiens (Human), UniProt Q12809); test: hERG patch clamp test in HEK293 engineering cells; assay type: cell-based; conditions: HEK293 cells stably expressing hERG potassium channel
Sequence of hERG potassium channel (Q12809 whole entry): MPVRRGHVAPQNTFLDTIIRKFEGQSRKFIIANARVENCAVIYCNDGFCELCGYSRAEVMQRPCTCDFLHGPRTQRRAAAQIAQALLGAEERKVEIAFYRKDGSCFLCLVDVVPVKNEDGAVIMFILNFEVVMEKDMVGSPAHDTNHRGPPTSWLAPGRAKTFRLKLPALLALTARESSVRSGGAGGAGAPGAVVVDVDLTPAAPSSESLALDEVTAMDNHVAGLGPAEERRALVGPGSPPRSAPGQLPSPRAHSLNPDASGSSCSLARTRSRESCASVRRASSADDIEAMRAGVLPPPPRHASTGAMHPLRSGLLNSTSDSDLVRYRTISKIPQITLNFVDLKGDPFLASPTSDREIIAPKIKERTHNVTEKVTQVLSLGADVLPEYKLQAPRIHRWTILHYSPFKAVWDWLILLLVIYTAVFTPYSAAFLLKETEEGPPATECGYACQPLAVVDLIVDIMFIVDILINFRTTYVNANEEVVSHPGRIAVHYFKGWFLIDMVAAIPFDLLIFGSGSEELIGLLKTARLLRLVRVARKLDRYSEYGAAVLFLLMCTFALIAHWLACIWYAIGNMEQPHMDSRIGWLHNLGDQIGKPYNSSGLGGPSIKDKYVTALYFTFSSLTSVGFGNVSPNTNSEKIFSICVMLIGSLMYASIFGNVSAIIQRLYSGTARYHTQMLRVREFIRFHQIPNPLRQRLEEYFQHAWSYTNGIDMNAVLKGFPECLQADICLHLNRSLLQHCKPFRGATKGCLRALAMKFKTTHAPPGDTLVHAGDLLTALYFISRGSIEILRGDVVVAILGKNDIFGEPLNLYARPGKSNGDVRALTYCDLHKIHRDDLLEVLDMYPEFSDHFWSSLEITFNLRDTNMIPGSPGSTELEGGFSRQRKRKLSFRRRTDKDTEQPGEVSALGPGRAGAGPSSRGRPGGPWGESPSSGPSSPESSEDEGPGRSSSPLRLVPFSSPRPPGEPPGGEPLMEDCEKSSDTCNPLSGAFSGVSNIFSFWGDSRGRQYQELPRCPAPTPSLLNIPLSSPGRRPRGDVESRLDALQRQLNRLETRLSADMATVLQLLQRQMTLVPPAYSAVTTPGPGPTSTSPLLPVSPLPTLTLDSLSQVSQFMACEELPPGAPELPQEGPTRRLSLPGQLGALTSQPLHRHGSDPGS
Method: 1. HEK293 engineering cells stably expressed with hERG potassium channel were used to test the compounds.
The cells were separated by TrypLE™ Express before the test. 3×10^3 of cells were spread on a cover plate, cultured in 24-well plate and tested 18 hours later. The signals produced by voltage stimulation of potassium currents in cells were recorded by electrophysiological techniques.
Data Analysis and Results
First of all, currents after the action of drug of each concentration and blank control were standardized separately
[formula] and then the corresponding inhibition ratio of each concentration was calculated
[formula] The average and the standard error were calculated for each concentration, and 50% inhibiting concentration of each compound was calculated according to the following equation: […]
The dose-dependent effect was obtained through nonlinear fitting with the equation above. C refers to drug concentration, IC50 refers to 50% inhibiting concentration and h refers to hill coefficient. The curve fitting and the calculation of IC50 were processed by IGOR software.

[8] = target: S1P2 (Homo sapiens (Human), UniProt O95136); test: PathHunter β-arrestin test S1P2; assay type: cell-based; conditions: PathHunter β-arrestin engineering cells
Sequence of S1P2 (O95136 whole entry, species assumed): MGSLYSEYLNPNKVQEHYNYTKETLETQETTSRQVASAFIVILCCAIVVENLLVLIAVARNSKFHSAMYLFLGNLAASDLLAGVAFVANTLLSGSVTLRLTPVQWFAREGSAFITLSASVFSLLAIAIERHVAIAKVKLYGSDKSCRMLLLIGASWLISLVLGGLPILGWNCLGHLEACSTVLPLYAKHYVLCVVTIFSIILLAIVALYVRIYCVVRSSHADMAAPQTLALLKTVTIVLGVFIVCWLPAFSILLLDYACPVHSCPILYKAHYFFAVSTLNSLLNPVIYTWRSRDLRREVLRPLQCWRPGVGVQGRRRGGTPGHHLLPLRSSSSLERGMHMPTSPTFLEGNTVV
Method: as §7, §8, §9, §10, §11, §12, §13

[9] = target: S1P3 (Homo sapiens (Human), UniProt Q99500); test: PathHunter β-arrestin test S1P3; assay type: cell-based; conditions: PathHunter β-arrestin engineering cells
Sequence of S1P3 (Q99500 whole entry, species assumed): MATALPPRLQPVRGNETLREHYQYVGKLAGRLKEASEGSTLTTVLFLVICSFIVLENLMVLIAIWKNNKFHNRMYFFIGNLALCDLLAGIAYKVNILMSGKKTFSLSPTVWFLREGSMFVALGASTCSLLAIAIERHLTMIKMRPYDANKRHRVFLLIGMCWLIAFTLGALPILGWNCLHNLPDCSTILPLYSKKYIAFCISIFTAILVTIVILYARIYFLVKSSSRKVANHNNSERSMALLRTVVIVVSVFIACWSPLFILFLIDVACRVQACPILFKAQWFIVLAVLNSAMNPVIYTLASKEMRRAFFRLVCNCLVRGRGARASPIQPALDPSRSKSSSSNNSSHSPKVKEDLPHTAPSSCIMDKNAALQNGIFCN
Method: as §7, §8, §9, §10, §11, §12, §13

[10] = Stability observation on the isolated solid; assay type: physicochemical; conditions: white solid; stored at low temperature under the protection of nitrogen
Method: 0.426 g (0.727 mmol) of intermediate 80 was dissolved in 16 ml of methanol, added with 0.01 ml of concentrated hydrochloric acid, purged with nitrogen to remove air, followed by the addition of 0.09 g of palladium 10% on carbon, purged with hydrogen, and reacted overnight at 95° C. The reaction was monitored by TLC (DCM:MeOH=10:1). After the reaction was completed, the resulting mixture was filtered, and the filter cake was washed with hot methanol. The filtrate was concentrated by rotary evaporation, added with 1% sodium hydrate solution to adjust pH to 9-10. […] Yield: 8.5%. LC-MS: 406 [M+1]^+, tR=1.328 min. A corresponding hydrogenchloride salt was obtained by mixing the solid with a solution of hydrogen chloride in methanol under stirring.

Row | SMILES | CD8 (%) ([1]; 1 mg/kg) | CD8 (%) ([1]; 5 mg/kg) | CD19 (%) ([2]; 1 mg/kg) | CD19 (%) ([2]; 5 mg/kg) | CD4 (%) ([3]; 1 mg/kg) | CD4 (%) ([3]; 5 mg/kg) | EC50 [4] | EC50 [5] | EC50 [6] | IC50 [7] | EC50 [8] | EC50 [9] | stability of the solid [10]
1 | CC(C)Oc1ccc(-c2nnc(-c3ccc4c(c3)C[C@](N)(CO)CC4)o2)cc1F [Example 1, (S)-(2-amino-7-(5-(3-fluoro-4-isopropoxyphenyl)-1,3,4-oxadiazol-2-yl)-1,2,3,4-tetrahydronaphthalen-2-yl)methanol] | 10.0% | 1.8% | 39.0% | 17.5% | 10.9% | 1.2% | – | – | – | – | – | – | –
2 | N[C@@]1(CO)CCc2ccc(-c3nnc(-c4ccc5c(c4)OCO5)o3)cc2C1 [Example 2] | 13.0% | 8.6% | 44.8% | 35.2% | 23.1% | 16.4% | – | – | – | – | – | – | –
3 | CC(C)Oc1ccc(-c2nnc(-c3ccc4c(c3)C[C@](N)(CO)CC4)o2)cc1C#N [Example 3, (S)-5-(5-(7-amino-7-(hydroxymethyl)-5,6,7,8-tetrahydronaphthalen-2-yl)-1,3,4-oxadiazol-2-yl)-2-isopropoxybenzonitrile] | 11.9% | 6.1% | 39.3% | 24.7% | 22.1% | 7.2% | 250 nM | 4.56 nM | > 100000 nM | 7800 nM | > 100000 nM | 2110 nM | –
4 | CC(C)Oc1ccc(-c2nnc(-c3ccc4c(c3)C[C@](N)(CO)CC4)o2)cc1C(N)=O [Example 4, (S)-5-(5-(7-amino-7-(hydroxymethyl)-5,6,7,8-tetrahydronaphthalen-2-yl)-1,3,4-oxadiazol-2-yl)-2-isopropoxybenzamide] | 14.5% | 12.3% | 47.1% | 43.6% | 27.1% | 27.0% | – | – | – | – | – | – | –
5 | N#Cc1cc(-c2nnc(-c3ccc4c(c3)C[C@](N)(CO)CC4)o2)ccc1O [Example 5, (S)-5-(5-(7-amino-7-(hydroxymethyl)-5,6,7,8-tetrahydronaphthalen-2-yl)-1,3,4-oxadiazol-2-yl)-2-hydroxybenzonitrile] | 16.8% | 14.7% | 44.3% | 43.8% | 31.5% | 27.1% | – | – | – | – | – | – | –
6 | COc1ccc(-c2nnc(-c3ccc4c(c3)C[C@](N)(CO)CC4)o2)cc1C(F)(F)F [Example 6, (S)-(2-amino-7-(5-(4-methoxy-3-(trifluoromethyl)phenyl)-1,3,4-oxadiazol-2-yl)-1,2,3,4-tetrahydronaphthalen-2-yl)methanol] | 17.0% | 5.7% | 34.0% | 29.1% | 17.8% | 8.7% | – | – | – | – | – | – | –
7 | N[C@@]1(CO)CCc2ccc(-c3nnc(-c4ccc(F)c(F)c4)o3)cc2C1 [Example 7, (S)-(2-amino-7-(5-(3,4-difluorophenyl)-1,3,4-oxadiazol-2-yl)-1,2,3,4-tetrahydronaphthalen-2-yl)methanol] | 14.5% | 9.2% | 45.2% | 40.6% | 26.5% | 13.4% | – | – | – | – | – | – | –
8 | COc1ccc(-c2nnc(-c3ccc4c(c3)C[C@](N)(CO)CC4)o2)cc1F [Example 8, (S)-(2-amino-7-(5-(3-fluoro-4-methoxyphenyl)-1,3,4-oxadiazol-2-yl)-1,2,3,4-tetrahydronaphthalen-2-yl)methanol] | 16.6% | 16.0% | 36.8% | 41.7% | 33.4% | 30.0% | – | – | – | – | – | – | –
9 | CC(=O)Nc1ccc(-c2nnc(-c3ccc4c(c3)C[C@](N)(CO)CC4)o2)cc1 [Example 9, (S)—N-(4-(5-(7-amino-7-(hydroxymethyl)-5,6,7,8-tetrahydronaphthalen-2-yl)-1,3,4-oxadiazol-2-yl)phenyl)acetamide] | 17.3% | 17.0% | 42.5% | 44.3% | 33.1% | 31.9% | – | – | – | – | – | – | –
10 | N[C@@]1(CO)CCc2ccc(-c3nnc(-c4ccc(O)c(C(F)(F)F)c4)o3)cc2C1 [Example 10, (S)-4-(5-(7-amino-7-(hydroxymethyl)-5,6,7,8-tetrahydronaphthalen-2-yl)-1,3,4-oxadiazol-2-yl)-2-(trifluoromethyl)phenol] | 15.3% | 14.0% | 44.3% | 35.7% | 31.1% | 27.7% | – | – | – | – | – | – | prone to oxidative degradation
11 | N[C@@]1(CO)CCc2ccc(-c3nnc(-c4ccc(C(F)(F)F)c(F)c4)o3)cc2C1 [Example 11, (S)-(2-amino-7-(5-(3-fluoro-4-(trifluoromethyl)phenyl)-1,3,4-oxadiazol-2-yl)-1,2,3,4-tetrahydronaphthalen-2-yl)methanol] | 14.9% | 13.8% | 52.1% | 54.0% | 23.5% | 20.5% | – | – | – | – | – | – | –
12 | N[C@@]1(CO)CCc2ccc(-c3nnc(-c4cc(C(F)(F)F)cc(C(F)(F)F)c4)o3)cc2C1 [Example 12, (S)-(2-amino-7-(5-(3,5-bis(trifluoromethyl)phenyl)-1,3,4-oxadiazol-2-yl)-1,2,3,4-tetrahydronaphthalen-2-yl)methanol] | 9.6% | 3.4% | 53.2% | 38.1% | 15.2% | 2.8% | – | – | – | – | – | – | –
13 | CCOc1ccc(-c2nnc(-c3ccc4c(c3)C[C@](N)(CO)CC4)o2)cc1OCC [Example 13, (S)-(2-amino-7-(5-(3,4-diethoxyphenyl)-1,3,4-oxadiazol-2-yl)-1,2,3,4-tetrahydronaphthalen-2-yl)methanol] | 12.7% | 9.4% | 56.8% | 53.8% | 23.4% | 11.6% | > 10000 nM | 21.6 nM | > 100000 nM | – | > 100000 nM | 613 nM | –
14 | CC(C)Oc1ccc(-c2nnc(-c3ccc4c(c3)C[C@](N)(CO)CC4)o2)cc1C(F)(F)F [Example 14, (S)-(2-amino-7-(5-(4-isopropoxy-3-(trifluoromethyl)phenyl)-1,3,4-oxadiazol-2-yl)-1,2,3,4-tetrahydronaphthalen-2-yl)methanol] | – | – | – | – | – | – | – | – | – | 870 nM | – | – | –
15 | CCCCCCCCCCCCC/C=C/[C@@H](O)[C@@H](N)COP(=O)(O)O [Example S1P, sphingosine-1-phosphate, reference compound] | – | – | – | – | – | – | – | 25.2 nM | 190 nM | – | – | 26.3 nM | –
